From patent US20030228672A1, “Sorbitol dehydrogenases of ketogulonigenium species, genes and methods of use thereof” (priority 2002, published 2003)

B1: SDH2: sorbitol dehydrogenase of K. robustum ADM 86-96, 579 amino acids (SEQ ID NO:7) (protein, listed as Ketogulonigenium sp.)
chain: MKTKSFLFAGVAALASYGTIALADVTPVTDELLANPPAGEWISYGRNQENYRHSPLNQITPENVGQLQLVWARGMNAGKVQVTPLIHDGVMYLANPGDIIQAIDAKTGDLIWEHRRQLPNVATLNSFGEPIRGIALYGTNVYFVSWDNHLVALDAATGQVTFDVDRGQGEDMVSNSSGPIVANGVIVAGSTCQYSPFGCFVSGHDATTGEELWRNYFIPKAGEEGDETWGNDYEARWMTGVWGQITYDPVTNLVFYGSSAVGPASETQRGTTGGTMYGTNTRFAVRPDTGEIVWRHQTLPRDNWDQECTFEMMVANVDVQPSADMDGLKSINPNAATGERRVLTGVPCKTGTMWQFDAETGEFLWARDTNYQNMISSIDETGLVTVNEDIILKDLDTDYRICPTFLGGRDWPSASLNPDSGIYFIPLNNACADLAAVDQEFTAMDVYNTSATYLLAPEKENMGRIDAIDISTGKTLWSVERLASNYSPVLSTAGGVLFNGGSDRYFRALSEETGETLWQTRLATVASGQAVSYELDGVQYIAIAGGGTTYGAVQNRPLAEPVDSTSIGNAVYVFALPQQ

What was measured:
[1] = tested on: dehydrogenase enzyme activity in cellular fractions; assay: Enzyme assays with cellular fractions employing nicotinamide cofactors; format: biochemical, K. robustum ADM X6L and Ketogulonigenium sp. ADM 291-19; conditions: different substrates, either strain
SDH = SDH activities in osmotic shock fractions, PMS-DCIP method; format: biochemical; conditions: for SDH activity, Osmotic Shock Fluid: Osmotic Shock Fluid (periplasmic fraction); for SDH activity, Pellet Sonicate: Pellet Sonicate (cytoplasm and cytoplasmic membrane); for SDH activity, Tris-Sucrose Wash: Tris-Sucrose Wash (periplasmic fraction)
Description: (§1) For more detailed localization study, periplasmic fraction was enriched by the method of osmotic shock (Neu, H. C. and Heppel, L. A., J. Biol. Chem., 240:3685 (1965)). Wet cells were resuspended at about 0.1 g/ml in 20% sucrose-0.03 M Tris·HCl buffer (pH 8.0) at room temperature. Di-sodium EDTA was added to 1 mM and the flask was shaken at 180 rpm at room temperature for 10 min. After centrifugation at 16,000 g for 20 min at 4° C., the supernatant was removed and the pellet was rapidly mixed with cold distilled water of the same volume as the original cell suspension and shaken in ice bucket in a shaker for 10 min. The mixture was centrifuged again to obtain the supernatant called “osmotic shock fluid”. The pellet was sonicated in the same buffer, centrifuged and the supernatant was obtained as “pellet sonicate”.
(§2) The dehydrogenase enzyme activity was assayed spectrophotometrically using 2,6-dichlorophenol indophenol (DCIP) as an artificial electron acceptor and phenazine methosulphate (PMS) as an electron mediator. The reaction mixture contained 50 mM Tris·HCl buffer (pH 8.0), 10 mM MgCl2, 5 mM CaCl2, 5 mM KCN, 0.1 mM PMS, 0.12 mM DCIP, a substrate as D-sorbitol (250 mM), L-sorbose (250 mM) or glyoxal (50 mM) and enzyme solution in a total volumn of 1.0 ml. The rate of decrease in absorbance at 522 nm was determined. One unit of enzyme activity was defined as the amount of enzyme catalyzing reduction of 1 μmol of DCIP per minute.
(§3) For further localization of the enzymes to periplasm or cytoplasm, periplasm was enriched by osmotic shock method as described in Step 3 of Example 1. In this method, the Tris-Sucrose wash and the osmotic shock fluid represent the periplasmic fraction and the pellet sonicate represents the cytoplasm and the cytoplasmic membrane. […] The remaining activity in pellet sonicate could be due to the incomplete release of periplasm by osmotic shock. Typical enzyme activity assay for SDH and β-galactosidase for fractions obtained by osmotic shock fractionation is shown in Table 3.

[2] = tested on: purified SDH of K. robustum ADM X6L; assay: Substrate specificity of purified SDH, PMS-DCIP method; format: biochemical, Ketogulonigenium robustum ADM X6L; conditions: substrate 250 mM, 1-Propanol = 100
Description: as §2
(§4) First, the periplasmic proteins from the cells of K. robustum ADM X6L and Ketogulonigenium sp. ADM 291-19 obtained in Step 1 of Example 1 were prepared by osmotic shock fractionation as described in Step 3 of Example 1. About 50 ml of osmotic shock fluid containing periplasmic proteins was loaded onto a DEAE-TSK 650 (S) (Merck) column (2.5×15 cm) previously equilibrated with 10 mM Tris·HCl buffer (pH 8.0). The column was first washed with 80 ml of 10 mM Tris·HCl buffer (pH 8.0) containing 0.1 M NaCl, followed by a gradient elution with 600 ml of the same buffer containing 0.1-0.5 M NaCl. Fractions containing 5 ml of eluant were collected and assayed for the SDH enzyme activities with D-sorbitol, L-sorbose and glyoxal as substrate. […] At about 0.15 M NaCl, eluted red fractions that probably contained cytochrome c.
(§5) Active fractions eluted from DEAE column were pooled and further purified by gel filtration column chromatography. The active fractions were concentrated by about 20 fold with ultrafiltration in Centricon 30 (Amicon). The concentrate was loaded onto Superose 12 (Pharmacia) and eluted isocratically with 50 mM sodium phosphate buffer (pH 7.0) containing 0.15 M NaCl.
(§6) The purified enzymes were active toward D-sorbitol, L-sorbose and glyoxal.

[3] = tested on: dehydrogenase enzyme activity (SDH) of Ketogulonigenium sp. ADM 291-19; assay: Enzyme activity in cellular fractions, Ferric-Dupanol method (localization); format: biochemical
Description: (§7) Cells were harvested by centrifugation at 12,000 g for 10 min, washed once with 10 mM Tris·HCl buffer (pH 8.0) and disrupted by sonication in a Branson Sonifier 450 for 15 min at 50% duty cycle in ice. The homogenate thus prepared was centrifuged at 12,000 g for 5 min to remove the cell debris. The resulting supernatant was centrifuged at 100,000 g for 90 min to get the supernatant as soluble fraction and the precipitate as crude membrane fraction. The crude membrane fraction was solubilized with 1.5% n-octyl glucoside by stirring for 2 hours at 4° C. The resultant suspension was centrifuged at 12,000 g for 10 min to give a supernatant, designated as solubilized membrane fraction.
(§8) Enzyme activity was determined also by the Ferric-Dupanol method (Wood, W. A. et al., Meth. Enzymol., 5, 287 (1962)). The enzyme was preincubated for 5 min at 25° C. The reaction was started by addition of 10 mM (final conc.) potassium ferricyanide and 250 mM (final conc.) D-sorbitol, L-sorbose, or glyoxal. After an appropriate time, the reaction was stopped by adding the ferric sulfate-Dupanol solution (Fe2(SO4)3.nH2O 5 g/l, Dupanol (sodium lauryl sulfate) 3 g/l and 85% phosphoric acid 95 ml/l) and the absorbance of the Prussian color developed was determined at 660 nm in a spectrophotometer.
(§9) Enzyme activities towards D-sorbitol, L-sorbose and glyoxal in different cellular fractions were determined for enzyme localization in K. robustum ADM X6L and Ketogulonigenium sp. ADM 291-19. In both cases, most of the enzyme activity detected in crude cell extract was found in the soluble fraction and the activity in solubilized membrane fraction was negligible when assayed with Ferric-Dupanol method.

[4] = tested on: purified SDH of Ketogulonigenium sp. ADM 291-19; assay: Substrate specificity of purified SDH, PMS-DCIP method; format: biochemical; conditions: substrate 250 mM, 1-Propanol = 100
Description: The dehydrogenase enzyme activity was assayed spectrophotometrically using 2,6-dichlorophenol indophenol (DCIP) as an artificial electron acceptor and phenazine methosulphate (PMS) as an electron mediator. […] The rate of decrease in absorbance at 522 nm was determined. One unit of enzyme activity was defined as the amount of enzyme catalyzing reduction of 1 μmol of DCIP per minute.
as §4, §5, §6

purified SDH enzymes = assay: Activity of the purified SDH enzymes toward substrates; format: biochemical, K. robustum ADM X6L and Ketogulonigenium sp. ADM 291-19; conditions: purified SDH enzymes of both strains
Description: as §4, §5, §6

[5] = tested on: dehydrogenase enzyme activity (SDH) of K. robustum ADM X6L; assay: Enzyme activity in cellular fractions, Ferric-Dupanol method (localization); format: biochemical, Ketogulonigenium robustum ADM X6L
Description: as §7, §8, §9

β-galactosidase = assay: β-Galactosidase activity in osmotic shock fractions (intracellular enzyme marker); format: biochemical; conditions: High Sensitivity β-Galactosidase Assay Kit
Description: as §1, §3

[6] = tested on: K. robustum ADM X6L transformants; assay: Bioconversion of L-sorbose by transformants, HPLC of culture supernatant; format: cell-based, Ketogulonigenium robustum ADM X6L
Description: (§10) For expression of the three SDH genes in K. robustum strains, the genes with their own promoters were subcloned into the vector, pXH2/K5. These plasmids were transformed into the strains, K. robustum ADM X6L and 86-96 (NRRL B-21630), by electroporation. In this case, gene dosage effect may be expected due to the apparent high copy number of the plasmid pXH2/K5. The transformants were analyzed by HPLC for improved conversion activity upon overexpression of each SDH gene using D-sorbitol and L-sorbose as substrate.
The effect of overexpression of the three SDH genes in bioconversion activity was analyzed by HPLC analysis of the product profile of the culture supernatant of transformants in a medium containing D-sorbitol or L-sorbose as substrate. The transformants were cultivated overnight in RM medium containing 20 μg/ml of Kanamycin. This overnight culture was used to inoculate the 25 ml RM medium (supplemented with 20 μg/ml of Kanamycin) containing 20 g/l of D-sorbitol or 20 g/l of L-sorbose as substrate instead of mannitol. The culture supernatant samples were taken in a 12-hour interval and were analyzed by HPLC (Gilson HPLC with RI detector (ERC-7515A, ERC Inc.)) equipped with Asted XL automatic sample injector. […] The peaks were identified and the concentration was determined by comparison with those of the standards using glycerol as internal standard. […]

[7] = tested on: K. robustum ADM X6L transformants; assay: Bioconversion of D-sorbitol by transformants, HPLC of culture supernatant; format: cell-based, Ketogulonigenium robustum ADM X6L; conditions: D-sorbitol as substrate
Description: as §10
The effect of overexpression of the three SDH genes in bioconversion activity was analyzed by HPLC analysis of the product profile of the culture supernatant of transformants in a medium containing D-sorbitol or L-sorbose as substrate. The transformants were cultivated overnight in RM medium containing 20 μg/ml of Kanamycin. This overnight culture was used to inoculate the 25 ml RM medium (supplemented with 20 μg/ml of Kanamycin) containing 20 g/l of D-sorbitol or 20 g/l of L-sorbose as substrate instead of mannitol. The culture supernatant samples were taken in a 12-hour interval and were analyzed by HPLC (Gilson HPLC with RI detector (ERC-7515A, ERC Inc.)) equipped with Asted XL automatic sample injector. Samples were loaded on two 2 mm×300 mm×7.8 mm Aminex HPX-87H columns (BioRad) arranged in series to provide a total column length of 600 mm. The column was run at 50° C. at a flow rate of 0.5 ml/min. The peaks were identified and the concentration was determined by comparison with those of the standards using glycerol as internal standard.
K. robustum ADM X6L transformants harboring the pXSDH1, pXSDH2 or pXSDH3 were cultivated with D-sorbitol or L-sorbose as substrate. HPLC analysis of the products from D-sorbitol (Table 10) or L-sorbose (Table 11) is shown below. A transformant harboring pXH2 served as control.

| Molecule | nicotinamide cofactor dependence (in words) [1] | SDH activity, Osmotic Shock Fluid (SDH) | SDH activity, Pellet Sonicate (SDH) | SDH activity, Tris-Sucrose Wash (SDH) | % relative activity, ADM X6L [2] | enzyme activity, Cell Free Extract [3] | enzyme activity, Membrane Fraction [3] | enzyme activity, Soluble Fraction [3] | % relative activity, ADM291-19 [4] | activity of the purified enzymes toward the substrate (in words) (purified SDH enzymes) | enzyme activity, Cell Free Extract [5] | enzyme activity, Membrane Fraction [5] | enzyme activity, Soluble Fraction [5] | other results |
| --- | --- | --- | --- | --- | --- | --- | --- | --- | --- | --- | --- | --- | --- | --- |
| NC(=O)c1ccc[n+]([C@@H]2O[C@H](COP(=O)([O-])OP(=O)(O)OC[C@H]3O[C@@H](n4cnc5c(N)ncnc54)[C@H](O)[C@@H]3O)[C@@H](O)[C@H]2O)c1 [AND] | did not show any sign of nicotinamide cofactor dependence | – | – | – | – | – | – | – | – | – | – | – | – | – |
| O=C(CO)[C@@H](O)[C@H](O)[C@@H](O)CO [L-sorbose] | – | 0.20 ΔOD/min/50 μl enzyme | 0.43 ΔOD/min/50 μl enzyme | 0.14 ΔOD/min/50 μl enzyme | 8.7% | 0.55 ΔOD/min/2 μl enzyme | 0.00 ΔOD/min/2 μl enzyme | 0.53 ΔOD/min/2 μl enzyme | 8.8% | active | 0.64 ΔOD/min/4 μl enzyme | 0.01 ΔOD/min/4 μl enzyme | 0.61 ΔOD/min/4 μl enzyme | – |
| NC(=O)c1ccc[n+]([C@@H]2O[C@H](COP(=O)([O-])OP(=O)(O)OC[C@H]3O[C@@H](n4cnc5c(N)ncnc54)[C@H](OP(=O)(O)O)[C@@H]3O)[C@@H](O)[C@H]2O)c1 [NADP] | did not show any sign of nicotinamide cofactor dependence | – | – | – | – | – | – | – | – | – | – | – | – | – |
| O=S1(=O)OC(c2ccc(O)c(Cl)c2)(c2ccc(O[C@@H]3O[C@H](CO)[C@H](O)[C@H](O)[C@H]3O)c(Cl)c2)c2ccccc21 (stereo partly drawn) [chlorophenol red-β-D-galactopyranoside] | – | – | – | – | – | – | – | – | – | – | – | – | – | β-Galactosidase Activity, Osmotic Shock Fluid (β-galactosidase; Osmotic Shock Fluid): 0.057 nmol/min; β-Galactosidase Activity, Pellet Sonicate (β-galactosidase; Pellet Sonicate): 2.2 nmol/min; β-Galactosidase Activity, Tris-Sucrose Wash (β-galactosidase; Tris-Sucrose Wash): 0.043 nmol/min |
| O=CC=O [glyoxal] | – | 0.43 ΔOD/min/50 μl enzyme | 0.76 ΔOD/min/50 μl enzyme | 0.36 ΔOD/min/50 μl enzyme | 15.1% | 0.61 ΔOD/min/2 μl enzyme | 0.00 ΔOD/min/2 μl enzyme | 0.52 ΔOD/min/2 μl enzyme | 16.1% | active | 0.39 ΔOD/min/4 μl enzyme | 0.00 ΔOD/min/4 μl enzyme | 0.50 ΔOD/min/4 μl enzyme | – |
| B1 | – | – | – | – | – | – | – | – | – | – | – | – | – | improvement of 2KLG production from L-sorbose upon overexpression ([6]; flask scale experiment, versus pXH2 control): 2-3 times; 2KLG production from L-sorbose upon overexpression (in words) ([6]; flask scale experiments): significantly improved; products formed upon overexpression with D-sorbitol as substrate (in words) [7]: formation of 2-keto-D-gluconic acid (2KDG) as well as 2KLG |
